From the supplement of paper PMC6045584
± gives the standard deviation of the averaged measurements.

Assays:
[1] = compound: CCn1c(C(=O)N(C2CC2)C2CC2)cc2c3c(ncn3C)c(Nc3cc(C)n(C)n3)nc21; experiment: surviving fraction relative to DMSO-only wells; higher = less growth inhibition; conditions: exposure time: 5 days
How it was run: (§1)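 Surviving fraction was calculated by normalising CellTiter-Glo luminescence to the median of DMSO-only wells. Tumour cell lines in log phase were seeded in 384-well plates at 250–500 cells per well, and 24 hours later were exposed continuously for five days to inhibitors at 0.5, 1, 5, 10, 50, 100, 500 and 1000 nM.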

[2] = compound: COc1cc2ncnc(Nc3ccc(F)c(Cl)c3)c2cc1NC(=O)/C=C/CN1CCCCC1; experiment: as above; conditions: exposure time: 5 days
How it was run: as §1

Test System	surviving fraction ([1]; 0.5 nM)	surviving fraction ([1]; 1 nM)	surviving fraction ([1]; 5 nM)	surviving fraction ([1]; 10 nM)	surviving fraction ([1]; 50 nM)	surviving fraction ([1]; 100 nM)	surviving fraction ([1]; 500 nM)	surviving fraction ([1]; 1000 nM)	surviving fraction ([2]; 0.5 nM)	surviving fraction ([2]; 1 nM)	surviving fraction ([2]; 5 nM)	surviving fraction ([2]; 10 nM)	surviving fraction ([2]; 50 nM)	surviving fraction ([2]; 100 nM)	surviving fraction ([2]; 500 nM)	surviving fraction ([2]; 1000 nM)
G292 BONE	0.983 ± 0.044	0.978 ± 0.019	1.01 ± 0.056	1.01 ± 0.038	1.03 ± 0.04	1.028 ± 0.0063	0.952 ± 0.021	0.97 ± 0.036	1.03 ± 0.021	0.979 ± 0.054	1.05 ± 0.031	1.02 ± 0.03	0.981 ± 0.052	0.9292 ± 0.0084	0.693 ± 0.029	0.424 ± 0.013
HCC38 BREAST	1.26 ± 0.17	1.2 ± 0.084	1.28 ± 0.02	1.14 ± 0.063	1.19 ± 0.11	1.23 ± 0.099	1.22 ± 0.18	1.24 ± 0.17	1.02 ± 0.082	1.21 ± 0.21	1.16 ± 0.044	1.22 ± 0.26	0.954 ± 0.26	1.07 ± 0.046	0.863 ± 0.099	0.716 ± 0.06
HCC70 BREAST	0.976 ± 0.033	0.984 ± 0.15	1.03 ± 0.093	0.97 ± 0.041	1.055 ± 0.0098	1.06 ± 0.055	0.939 ± 0.026	0.946 ± 0.068	1.11 ± 0.059	1.06 ± 0.11	0.926 ± 0.074	0.957 ± 0.11	0.956 ± 0.11	0.975 ± 0.049	0.897 ± 0.091	0.842 ± 0.031
HMLE3 BREAST	0.951 ± 0.038	0.942 ± 0.037	0.977 ± 0.09	0.949 ± 0.072	0.953 ± 0.088	0.956 ± 0.061	0.914 ± 0.036	0.906 ± 0.056	0.953 ± 0.036	0.934 ± 0.063	0.917 ± 0.084	0.953 ± 0.065	0.921 ± 0.069	0.932 ± 0.052	0.793 ± 0.076	0.679 ± 0.035
HMT3552 BREAST	0.943	0.942	1.08	1.03	1.23	1.18	1.18	1.27	0.902	0.831	0.845	0.802	0.827	0.792	0.65	0.302
HS57T BREAST	0.959 ± 0.063	0.892 ± 0.0062	1 ± 0.045	0.967 ± 0.037	1.08 ± 0.055	1.01 ± 0.017	0.934 ± 0.049	0.917 ± 0.055	0.945 ± 0.064	1.02 ± 0.076	1.07 ± 0.024	1.04 ± 0.038	1.04 ± 0.032	1.04 ± 0.05	0.86 ± 0.064	0.318 ± 0.026
HS578T BREAST	1.13 ± 0.053	0.828 ± 0.05	1 ± 0.12	1.01 ± 0.15	0.821 ± 0.06	1.09 ± 0.15	0.999 ± 0.049	0.989 ± 0.073	1.07 ± 0.1	1.15 ± 0.14	1.03 ± 0.12	0.956 ± 0.17	0.985 ± 0.2	1.09 ± 0.1	0.688 ± 0.19	0.412 ± 0.091
